The structures appear in SMILES notation.

Data on one compound can be found in patent US6590140B1, “Metal-regulated transporters and uses therefor” (Trustees of Dartmouth College, priority 1996, dated 2003).

In one test the target is T1, ZIP3 (Arabidopsis thaliana, UniProt Q9SLG3).
T1 construct: expressed in transfected cells; host or cells: S. cerevisiae ZHY3 (zrt1::LEU2 zrt2::HIS3) with an Arabidopsis cDNA clone in pFL61
T1 sequence (Q9SLG3 26-339): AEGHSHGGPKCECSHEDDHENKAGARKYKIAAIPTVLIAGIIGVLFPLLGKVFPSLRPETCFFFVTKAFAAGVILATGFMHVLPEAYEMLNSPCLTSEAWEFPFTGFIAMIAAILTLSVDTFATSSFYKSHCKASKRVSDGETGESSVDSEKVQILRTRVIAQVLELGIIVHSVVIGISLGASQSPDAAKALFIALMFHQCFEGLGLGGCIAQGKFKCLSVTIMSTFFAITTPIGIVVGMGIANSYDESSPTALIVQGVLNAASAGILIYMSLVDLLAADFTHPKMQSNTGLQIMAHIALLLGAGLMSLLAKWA
Description: Zn uptake by ZHY3 containing ZIP3. Type of test: cell-based. The settings on record: ZIP3 containing ZHY3 cells, 5 minute time course using 10 mM Zn. As for the experimental part: (§1) Zinc uptake assays were performed as described previously for iron uptake (Eide et al. (1992) J. Biol. Chem. 267:20774-20781) except that ^65ZnCl2 (Amersham) and LZM-EDTA were substituted for ^59FeCI3 and LIM-EDTA, respectively. Cells were incubated for 5 minutes in LZM-EDTA plus the indicated concentration of ^65Zn, collected on glass fiber filters (Schleicher and Schuell), washed with 10 ml ice-cold SSW (1 mM EDTA, 20 mM trisodium citrate, 1 mM KH2PO4, 1 mM CaCl2, 5 mM MgSO4, 1 mM NaCl pH 4.2), and cell-associated radioactivity was measured by liquid scintillation counting. […] Michaelis-Menten kinetic values were determined using […] software (Intellikinetics, Princeton, N.J.). […] The statistical significance of the differences of values relative to controls was determined with one-way analysis of variance (ANOVA) followed by a Dunnett multiple comparison test. β-galactosidase activity was assayed in cells harvested at an OD600 of 0.5-2.0 as described by Guarente (Guarente, L. (1983) Methods Enzymol. 101:181-191) and activity is expressed as the change in absorbance at 420 nm×1000 divided by (min×ml of culture used×OD600 of the culture). Cell-associated zinc was measured in parallel cultures supplemented with tracer amounts of ^65Zn (10 μM) and nonradioactive zinc to the indicated final concentration. […]

The test system of test [1] is zrt1zrt2 double mutant strain ZHY3. Description: 65Zn uptake assay in zrt1zrt2 double mutant. Type of test: cell-based, Saccharomyces cerevisiae. Conditions: ZHY3 without ZIP gene, 5 minute time course using 10 mM Zn. As for the experimental part:
as §1

Another test addresses T2, ZIP1 (Arabidopsis thaliana, UniProt O81123).
T2 construct: expressed in transfected cells; host or cells: S. cerevisiae ZHY3 (zrt1::LEU2 zrt2::HIS3) with an Arabidopsis cDNA clone in pFL61
T2 sequence (O81123 29-355): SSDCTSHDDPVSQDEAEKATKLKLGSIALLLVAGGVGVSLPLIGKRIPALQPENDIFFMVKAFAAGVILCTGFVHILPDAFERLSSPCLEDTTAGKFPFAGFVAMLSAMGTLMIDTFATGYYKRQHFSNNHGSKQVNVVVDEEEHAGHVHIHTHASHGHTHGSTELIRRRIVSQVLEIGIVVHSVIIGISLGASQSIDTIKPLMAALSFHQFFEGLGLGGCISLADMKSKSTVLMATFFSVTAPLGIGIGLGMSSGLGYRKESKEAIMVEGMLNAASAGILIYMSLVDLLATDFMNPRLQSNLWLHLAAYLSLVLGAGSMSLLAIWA
Description: Zn uptake by ZHY3 containing the ZIP1 gene. The settings on record: 5 minute time course using 10 mM Zn. It is filed as cell-based. As for the experimental part: as §1

`[Zn+2]` [zinc]: the Zn uptake rate was found to be 134 fmol/min/10^6 cells on ZIP3 and 191 fmol/min/10^6 cells at ZIP1. In test [1], the zinc uptake result was “essentially no detectable zinc uptake”.
